Data reported in US12691116B2, “SETBP1 and XPO1 inhibitors for the treatment of sickle cell disease and β-thalassemia” (The Henry M. Jackson Foundation for the Advancement of …, priority 2019, dated 2026).

Columns and labels:
MEL cells [1] = test: Real-time RT-PCR of hemoglobin mRNA in MEL cells 48 hours after removal of compound (24 hours treatment); type: cell-based, mouse; settings: treated 24 hours, examined 48 hours after removal
Description: Real-time RT-PCR analysis of Hbb-bh1, Hbb-y, and Hbb-b1 mRNA levels in MEL cells 48 hours after removal of Compound (1AA) or KPT-185 from culture. The cells were first treated with Compound (1AA) or KPT-185 for 24 hours. Relative expression levels were calculated by normalizing to Rpl4 mRNA levels in the same sample and also to cells treated with DMSO.
A further experiment examined whether continuous treatment of Compound (1AA) and KPT-185 as exemplary SETBP1 and XPO1 inhibitors, respectively, was required for activation of Hbb-bh1 and Hbb-y expression. MEL cells were treated with Compound (1AA) and KPT-185 for 24 hours and the Hbb-bh1 and Hbb-y mRNA levels were then examined at 48 hours after their removal.

human erythroid cells = test: Erythroid differentiation of human mobilized CD34+ cells, real-time RT-PCR of globin mRNA; type: cell-based; settings: human erythroid cells from CD34+ cells, treatment from day 5 of expansion, harvested day 10 of differentiation
Source text: Human CD34^+ cells mobilized by granulocyte-colony stimulating factor (G-CSF) were induced to undergo erythroid differentiation in culture. Treatment with Compound 1AA and 1BB at indicated concentrations or vehicles (DMSO or water) were started at day 5 of expansion condition. Erythroid cells were harvested at day 10 of differentiation condition for real-time RT-PCR analysis of human embryonic […] (FIG. 8A), fetal γ (FIG. 8B), and adult β (FIG. 8C) hemoglobin mRNA levels. Relative expression levels were calculated by normalizing to RPL4 mRNA levels in the same sample and also to cells treated with DMSO. (FIG. 8D) Representative bar graphs showing mRNA levels of human embryonic and fetal hemoglobin (γ+ε) as a percentage of total β-like globin (β+γ+ε) mRNA levels after treatment with Compound 1AA and 1BB versus DMSO. Note that a level of 20% or above for embryonic and fetal hemoglobin is considered curative for sickle cell disease. **, P<0.01; ***, P<0.001; ****P<0.0001 (two-tailed Student's t test).
(§1) For studies using MEL cells, the cells were treated with selected inhibitors or vehicle in a culture medium (RPM 11640 medium with 10% fetal bovine serum) for 48 hours and were subsequently harvested for analysis of relative mRNA levels of Hbb-bh1, Hbb-y, and Hbb-b1 using real-time RT-PCR. For studies using primary human CD34+ hematopoietic stem and progenitor cells, the cells were treated with inhibitors or vehicle following or concurrent with induction of erythroid differentiation using an established two-phase culture protocol (Xu et al., Genes & Development 24(8): 783-798 (2010)). Relative mRNA levels of β-like globin genes in human cells after treatment were also analyzed using real-time RT-PCR.
Primary human mobilized CD34^+ cells were initially cultured in expansion medium containing StemSpan SFEM Medium (StemCell Technologies Inc.) with 1×CC100 cytokine mix (StemCell Technologies Inc.) and 2% Penicillin-Streptomycin (Life Technologies Inc.). Cells were maintained in this expansion medium at a density of 0.1-1×10^6 cells/mL for a total of six days with media changes every two days. On day 6, cells were transferred into differentiation medium containing StemSpan SFEM Medium with 2% Penicillin-Streptomycin, 20 ng/ml SCF (Biolegend), 1 U/ml EPO (Amgen), 5 ng/ml IL-3 (Biolegend), 2 μM dexamethasone (Sigma), and 1 μM β-estradiol (Sigma). Cells were maintained at a density of 0.1-1×10^6 cells/mL in differentiation medium for 10 days with media changes every two days. Drug treatments were started at day 5 of expansion condition and maintained thereafter. Fresh drugs were added at each medium change.

MEL cells [2] = test: Real-time RT-PCR of Hbb-bh1, Hbb-y and Hbb-b1 mRNA in MEL cells after 48 hours of treatment; type: cell-based, mouse; settings: for increase in Hbb-bh1 (embryonic hemoglobin) mRNA level / increase in Hbb-y (fetal hemoglobin) mRNA level: 0.1 μM, 48 hours, relative to vehicle, normalized to Rpl4; for effect on Hbb-bh1 mRNA level (in words) / effect on Hbb-y mRNA level (in words): 48 hours of treatment at indicated concentration
Description: Real-time RT-PCR analysis of Hbb-bh1, Hbb-y, and Hbb-b1 mRNA levels in MEL cells after 48 hours of treatment with compound 1AA at indicated concentration or with control DMSO. Relative expression levels were calculated by normalizing to Rpl4 mRNA levels in the same sample and also to cells […] with DMSO. […]
Relative expression levels were calculated by normalizing to Rpl4 mRNA levels in the same sample and also to cells treated with DMSO.
as §1

[3] = system: SETBP1 interaction with XPO1; settings: cited from earlier work
SETBP1 = SETBP1 (Homo sapiens, UniProt Q9Y6X0); settings: cited from earlier work
SETBP1, sequence (Q9Y6X0 whole entry): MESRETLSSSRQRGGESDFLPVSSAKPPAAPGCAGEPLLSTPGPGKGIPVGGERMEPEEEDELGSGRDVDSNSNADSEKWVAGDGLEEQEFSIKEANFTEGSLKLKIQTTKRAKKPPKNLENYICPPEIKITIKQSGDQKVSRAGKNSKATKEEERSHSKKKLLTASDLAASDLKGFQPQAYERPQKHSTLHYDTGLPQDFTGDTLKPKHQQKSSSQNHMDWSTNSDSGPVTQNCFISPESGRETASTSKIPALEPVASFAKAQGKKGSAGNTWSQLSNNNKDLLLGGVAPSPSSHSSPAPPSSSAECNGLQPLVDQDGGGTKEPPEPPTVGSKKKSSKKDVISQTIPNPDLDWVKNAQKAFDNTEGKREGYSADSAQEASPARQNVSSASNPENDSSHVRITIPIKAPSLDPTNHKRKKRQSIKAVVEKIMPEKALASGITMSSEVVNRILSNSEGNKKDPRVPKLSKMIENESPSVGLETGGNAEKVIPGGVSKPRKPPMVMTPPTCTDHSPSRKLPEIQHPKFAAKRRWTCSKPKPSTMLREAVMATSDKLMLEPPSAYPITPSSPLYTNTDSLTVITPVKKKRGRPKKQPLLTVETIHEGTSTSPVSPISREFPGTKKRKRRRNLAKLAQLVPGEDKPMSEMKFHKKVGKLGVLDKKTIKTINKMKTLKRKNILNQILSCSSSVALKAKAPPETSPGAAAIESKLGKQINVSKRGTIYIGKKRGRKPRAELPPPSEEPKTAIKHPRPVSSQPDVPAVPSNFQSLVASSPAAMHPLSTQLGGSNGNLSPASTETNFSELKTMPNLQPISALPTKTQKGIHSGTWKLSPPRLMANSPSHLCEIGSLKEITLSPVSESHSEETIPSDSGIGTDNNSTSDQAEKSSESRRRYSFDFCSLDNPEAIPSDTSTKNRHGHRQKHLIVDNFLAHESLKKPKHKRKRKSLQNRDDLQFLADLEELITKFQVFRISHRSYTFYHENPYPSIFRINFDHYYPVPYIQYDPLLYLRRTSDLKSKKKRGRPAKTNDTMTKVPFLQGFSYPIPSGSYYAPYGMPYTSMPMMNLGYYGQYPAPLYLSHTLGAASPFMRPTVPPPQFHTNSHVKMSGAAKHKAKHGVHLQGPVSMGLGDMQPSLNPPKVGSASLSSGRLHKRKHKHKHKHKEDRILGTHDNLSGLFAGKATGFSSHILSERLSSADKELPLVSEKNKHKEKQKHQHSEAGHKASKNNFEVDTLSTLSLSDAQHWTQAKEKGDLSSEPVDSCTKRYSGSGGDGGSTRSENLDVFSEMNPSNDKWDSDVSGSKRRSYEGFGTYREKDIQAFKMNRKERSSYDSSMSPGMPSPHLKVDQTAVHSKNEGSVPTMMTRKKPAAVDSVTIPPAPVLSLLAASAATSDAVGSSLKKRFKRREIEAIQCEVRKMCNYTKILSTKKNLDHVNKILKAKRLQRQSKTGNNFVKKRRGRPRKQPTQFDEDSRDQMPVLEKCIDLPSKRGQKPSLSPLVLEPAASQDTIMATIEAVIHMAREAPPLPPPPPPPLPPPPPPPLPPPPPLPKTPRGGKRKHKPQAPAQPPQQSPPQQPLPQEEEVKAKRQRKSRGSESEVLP

| Compound | Hbb-bh1 mRNA level after removal of compound (MEL cells [1]) | Hbb-y mRNA level after removal of compound (MEL cells [1]) | human embryonic hemoglobin mRNA level (human erythroid cells) | human fetal γ hemoglobin mRNA level (human erythroid cells) | increase in Hbb-bh1 (embryonic hemoglobin) mRNA level (MEL cells [2]) | increase in Hbb-y (fetal hemoglobin) mRNA level (MEL cells [2]) | effect on adult hemoglobin Hbb-b1 mRNA level (MEL cells [2]; 48 hours of treatment) | blocking of SETBP1 interaction with cofactor XPO1 [3] | inhibition of SETBP1 (transcriptional activity) (SETBP1) | effect on Hbb-bh1 mRNA level (in words) (MEL cells [2]) | effect on Hbb-y mRNA level (in words) (MEL cells [2]) | Hbb-bh1 mRNA level compared to cells treated with hydroxyurea (MEL cells [2]; 48 hours of treatment) [fold] |
| --- | --- | --- | --- | --- | --- | --- | --- | --- | --- | --- | --- | --- |
| Cc1c2cc[n+](CCN3CCCCC3)cc2c(C)c2c1[nH]c1ccc(O)cc12.[Br-] [Compound (1AA)] | Significantly elevated levels | Significantly elevated levels | significantly increased | significantly increased | > 8 fold | > 8 fold | only minor changes | blocking | inhibitor | – | – | – |
| NC(=O)/C(=C/n1cnc(-c2cc(C(F)(F)F)cc(C(F)(F)F)c2)n1)c1cncnc1 [KPT-8602, reference compound] | – | – | – | – | – | – | – | – | – | significantly increase | significantly increase | – |
| COc1cc(-c2ncn(/C=C\C(=O)OC(C)C)n2)cc(C(F)(F)F)c1 [KPT-185, reference compound] | Significantly elevated levels | Significantly elevated levels | – | – | over 60 fold | over 14 fold | – | – | – | – | – | ~30 |
| CCN(CC)CC[n+]1ccc2c(C)c3[nH]c4ccc(O)cc4c3c(C)c2c1.[Cl-] [Compound (1BB)] | – | – | significantly increased | significantly increased | – | – | minor effects | – | inhibitor | significantly increase | significantly increase | – |
| O=C(/C=C\n1cnc(-c2cc(C(F)(F)F)cc(C(F)(F)F)c2)n1)NNc1cnccn1 [KPT-330, reference compound] | – | – | – | – | – | – | – | – | – | – | significantly increase | – |
